Columns and labels:
[1] = test system: histone deacetylase (HDAC); details: cited from earlier work
xenograft models = details: in vivo; cited from earlier work
cultured tumour cells = cultured tumour cells in vitro; cited from earlier work
[2] = test system: patients with solid tumours; assay: Clinical Study 1: toxicity and efficacy in monotherapy, two p.o. administration regimes
Description: A clinical study was set up to test the toxicity and efficacy of N-hydroxy-4-{2-[3-(N,N-dimethylaminomethyl)benzofuran-2-ylcarbonylamino]ethoxy}benzamide hydrochloride. 36 patients with solid tumours were included and treated in this study. A first administration regime was tested over a cycle of three weeks, with 14 consecutive days of 2 p.o. administrations 4 hours apart, followed by a week without treatment. Four dosage levels were successively tested from 30 to 75 mg/m^2 (expressed as a salt) twice daily. The acceptability of the various N-hydroxy-4-{2-[3-(N,N-dimethylaminomethyl)-benzofuran-2-ylcarbonylamino]ethoxy}benzamide dose levels were evaluated (especially, haematological toxicities) at the end of the first cycle.
This cycle can be repeated as many times as necessary for treatment of the cancer.

## CN(C)Cc1c(C(=O)NCCOc2ccc(C(=O)NO)cc2)oc2ccccc12 [N-hydroxy-4-{2-[3-(N,N-dimethylaminomethyl)benzofuran-2-ylcarbonylamino]ethoxy}benzamide]
[1]
  histone deacetylase (HDAC) inhibition: powerful
Xenograft models
  tumour growth: inhibits tumour growth
Cultured tumour cells
  apoptosis: induces apoptosis
  cell growth: inhibition of cell growth
[2]; first regime: 14 consecutive days of 2 p.o. administrations 4 hours apart, then a week without treatment, hydrochloride, dose expressed as a salt, 36 patients with solid tumours
  maximum tolerated dose: 75 mg/m^2 twice daily
[2]; human, in vivo
  platelet toxicity, second regime compared with first regime: less platelet toxicity than the previous regime
  reversibility of thrombopenias: reversible
[2]; human, in vivo, 3 weeks
  toxicities which limited increasing the dose: grade 4 thrombopenias
[2]; human, in vivo, po, 3 weeks
  recommended dose: 90 mg/m^2 twice daily
[2]; second regime: 4 consecutive days of 2 p.o. administrations 4 hours apart, then 3 days without treatment, each of the 3 weeks of a cycle
  maximum tolerated dose: 105 mg/m^2 twice daily

From patent publication US8883199B2, “Administration regime for N-hydroxy-4-{2-[3-(N,N-dimethylaminomethyl)benzofuran-2-ylcarbonylamino]ethoxy}benzamide” (priority 2011, dated 2014)
